Data as given in patent US12581252B2, “Substituted pyrrolo[3,4-b]pyridines as PI3K-α inhibitors” (Relay Therapeutics, Inc., priority 2020, dated 2026).

Target: H1047R PIK3CA enzyme (Homo sapiens, UniProt P42336, H1047R)
Assay: ADP-Glo Biochemical PIK3CA Kinase Assay

Sequence of H1047R PIK3CA enzyme (P42336 whole entry H1047R): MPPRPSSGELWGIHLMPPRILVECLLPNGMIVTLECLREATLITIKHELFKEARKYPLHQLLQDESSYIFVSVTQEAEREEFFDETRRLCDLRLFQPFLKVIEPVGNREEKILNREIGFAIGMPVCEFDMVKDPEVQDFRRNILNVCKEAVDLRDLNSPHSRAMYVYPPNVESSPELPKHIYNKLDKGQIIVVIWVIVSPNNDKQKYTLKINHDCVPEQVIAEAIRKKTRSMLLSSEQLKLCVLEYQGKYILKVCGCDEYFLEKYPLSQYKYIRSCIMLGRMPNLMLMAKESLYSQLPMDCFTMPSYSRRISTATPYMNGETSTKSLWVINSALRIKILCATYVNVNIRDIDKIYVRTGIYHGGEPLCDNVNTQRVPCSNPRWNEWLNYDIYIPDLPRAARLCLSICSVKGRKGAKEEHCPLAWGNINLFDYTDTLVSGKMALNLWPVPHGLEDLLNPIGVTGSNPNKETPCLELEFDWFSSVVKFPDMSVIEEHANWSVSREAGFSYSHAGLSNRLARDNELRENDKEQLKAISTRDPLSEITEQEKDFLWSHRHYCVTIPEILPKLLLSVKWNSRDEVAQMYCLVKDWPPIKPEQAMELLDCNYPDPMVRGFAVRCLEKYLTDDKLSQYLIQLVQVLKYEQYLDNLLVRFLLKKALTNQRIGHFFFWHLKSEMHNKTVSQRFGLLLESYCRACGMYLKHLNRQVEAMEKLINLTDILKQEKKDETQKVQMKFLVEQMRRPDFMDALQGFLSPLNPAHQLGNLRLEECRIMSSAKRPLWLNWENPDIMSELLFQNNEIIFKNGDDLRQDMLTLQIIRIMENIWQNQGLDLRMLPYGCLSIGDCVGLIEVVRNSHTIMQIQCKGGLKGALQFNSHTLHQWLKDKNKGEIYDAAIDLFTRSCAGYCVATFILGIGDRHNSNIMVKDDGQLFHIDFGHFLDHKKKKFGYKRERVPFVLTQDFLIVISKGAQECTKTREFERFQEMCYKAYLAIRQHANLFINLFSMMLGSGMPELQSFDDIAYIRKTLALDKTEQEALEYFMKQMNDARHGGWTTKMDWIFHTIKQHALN
Sequence of H1047R PIK3CA enzyme (P27986 whole entry partner): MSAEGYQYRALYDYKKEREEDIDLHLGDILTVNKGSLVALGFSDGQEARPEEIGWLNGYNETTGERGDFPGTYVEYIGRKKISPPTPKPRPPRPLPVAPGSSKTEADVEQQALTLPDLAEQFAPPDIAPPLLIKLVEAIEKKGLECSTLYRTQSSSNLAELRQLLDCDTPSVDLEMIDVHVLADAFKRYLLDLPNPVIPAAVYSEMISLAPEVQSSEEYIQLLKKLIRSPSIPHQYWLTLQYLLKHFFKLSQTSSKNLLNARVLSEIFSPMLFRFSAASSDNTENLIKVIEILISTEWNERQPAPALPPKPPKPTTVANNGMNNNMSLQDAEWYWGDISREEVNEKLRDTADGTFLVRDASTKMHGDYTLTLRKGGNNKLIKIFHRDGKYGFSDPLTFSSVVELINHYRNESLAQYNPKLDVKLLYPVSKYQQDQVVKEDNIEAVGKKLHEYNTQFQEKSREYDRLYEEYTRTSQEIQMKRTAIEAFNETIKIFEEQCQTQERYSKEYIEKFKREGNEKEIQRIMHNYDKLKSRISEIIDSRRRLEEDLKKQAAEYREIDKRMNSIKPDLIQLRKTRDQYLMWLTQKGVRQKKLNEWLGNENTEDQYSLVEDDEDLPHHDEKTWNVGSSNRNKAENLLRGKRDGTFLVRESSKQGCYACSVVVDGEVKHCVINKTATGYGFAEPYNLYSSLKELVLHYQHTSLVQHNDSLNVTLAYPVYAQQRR

Structure (SMILES) | IC50 [nM]
Cc1ccccc1C1NC(=O)c2cccc(NC(=O)c3nsc4ccc(Br)cc34)c21 (centres unmarked) [Compound I-376] | 500 to 1000
COc1ccc(-c2cc(NC(=O)c3cc(F)cc(C(F)(F)F)c3)c3c(c2)C(=O)NC3c2cc(F)ccc2Cl)nn1 (centres unmarked) [Compound I-1438] | ≤ 100
CS(=O)(=O)c1ccccc1-c1cc(NC(=O)c2cc(F)cc(C(F)(F)F)c2)c2c(c1)C(=O)NC2c1cc(F)ccc1Cl (centres unmarked) [Compound I-1195] | ≤ 100
Cc1ccccc1S(=O)(=O)Cc1cc(NC(=O)c2cc(F)cc(C(F)(F)F)c2)c2c(c1)C(=O)NC2c1cc(F)ccc1Cl (centres unmarked) [Compound I-1433] | ≤ 100
Cc1ncc(-c2cc(NC(=O)c3cc(F)cc(C(F)(F)F)c3)c3c(c2)C(=O)NC3c2cc(F)ccc2Cl)cn1 (centres unmarked) [Compound I-732] | ≤ 100
NS(=O)(=O)c1cc(-c2ccc3ncnn3c2)cc2c1[C@@H](c1cc(F)ccc1Cl)NC2=O [Compound I-2100] | 10000 to 100000
O=C(Nc1cccc2c1C(C1CCCCC1O)NC2=O)c1cc(F)cc(C(F)(F)F)c1 (centres unmarked) [Compound I-2060] | 10000 to 100000
O=C(Nc1cc(-c2ccn3cnnc3c2)cc2c1C(c1cc(F)ccc1Cl)NC2=O)c1cc(F)cc(C(F)(F)F)c1 (centres unmarked) [Compound I-1501] | ≤ 100
N#Cc1cnn2ccc(-c3cc(NC(=O)c4cc(F)cc(C(F)(F)F)c4)c4c(c3)C(=O)NC4c3cc(F)ccc3Cl)cc12 (centres unmarked) [Compound I-1762] | ≤ 100
O=C1NC(c2cc(F)ccc2Cl)c2c(Br)cc(-c3ccc4ncnn4c3)cc21 (centres unmarked) [Compound I-1672] | 10000 to 100000
O=C(Nc1cc(OC2CNC2)cc2c1C(c1cc(F)ccc1Cl)NC2=O)c1cc(F)cc(C(F)(F)F)c1 (centres unmarked) [Compound I-1252] | 100 to 500
Cc1ncc(-c2cc(NC(=O)c3cc(F)cc(C(F)(F)F)c3)c3c(n2)C(=O)N[C@H]3c2cc(F)ccc2Cl)cn1 [Compound I-653] | ≤ 100
O=C(Nc1cnc(NC2COC2)c2c1C(c1cc(F)ccc1Cl)NC2=O)c1cc(F)cc(C(F)(F)F)c1 (centres unmarked) [Compound I-440] | 1000 to 10000
Cc1cc(Cl)ccc1C1NC(=O)c2cccc(NC(=O)c3nsc4ccccc34)c21 (centres unmarked) [Compound I-133] | 1000 to 10000
CS(=O)(=O)c1cc(F)cc(C(=O)Nc2cc(Br)cc3c2C(c2cc(F)ccc2Cl)NC3=O)c1 (centres unmarked) [Compound I-912] | 10000 to 100000
Nc1nnc2ccc(-c3cc(NC(=O)c4cc(F)cc(C(F)(F)F)c4)c4c(c3)C(=O)N[C@H]4c3cc(F)ccc3Cl)cn12 [Compound I-1449] | ≤ 100
CP(C)(=O)Cc1cc(NC(=O)c2cc(F)cc(C(F)(F)F)c2)c2c(c1)C(=O)NC2c1cc(F)ccc1Cl (centres unmarked) [Compound I-775] | ≤ 100
O=C(Nc1cccc2c1[C@@H](C1CCCCC1)NC2=O)c1cc(F)cc(C(F)(F)F)c1 [Compound I-2053] | 10000 to 100000
Cc1ccccc1C1NC(=O)c2c(C(O)CO)ccc(NC(=O)c3csc4ccccc34)c21 (centres unmarked) [Compound I-120] | 100 to 500
O=C1N[C@@H](c2cc(F)ccc2Cl)c2c(NC(=O)N3C[C@](O)(C(F)(F)F)c4cc(F)ccc43)cc(N3CCCC3=O)cc21 (single isomer, unassigned) [Compound I-2668] | 10000 to 100000
COCC(=O)Nc1cc(NC(=O)c2cc(F)cc(C(F)(F)F)c2)c2c(c1)C(=O)NC2c1cc(F)ccc1Cl (centres unmarked) [Compound I-346] | ≤ 100

Structure (SMILES) | IC50 [nM]
O=C(Nc1cccc2c1C(c1cc(F)c(F)cc1C(F)F)NC2=O)c1cc(F)cc(C(F)(F)F)c1 (centres unmarked) [Compound I-330] | ≤ 100
O=C1NC(c2cc(F)ccc2Cl)c2c1cc(-c1ccc3ncnn3c1)cc2N1CCNCC1 (centres unmarked) [Compound I-1908] | 10000 to 100000
O=C1N[C@H](c2cc(F)ccc2Cl)c2c(NC(=O)N3C[C@@H](O)c4cccc(F)c43)cccc21 (single isomer, unassigned) [Compound I-2208] | 10000 to 100000
O=C1CCC[C@H]([C@H]2NC(=O)c3cccc(NC(=O)c4cc(F)cc(C(F)(F)F)c4)c32)C1 (single isomer, unassigned) [Compound I-2252] | 10000 to 100000
O=C(Nc1cc(Br)cc2c1C(c1cc(F)ccc1Cl)NC2=O)c1cc(F)cc(COC(F)F)c1 (centres unmarked) [Compound I-1285] | 10000 to 100000
Cc1ccccc1C1NC(=O)c2c(C)ncc(NC(=O)c3cc(F)cc(C(F)(F)F)c3)c21 (centres unmarked) [Compound I-244, 3-Fluoro-N-(4-methyl-3-oxo-1-(o-tolyl)-2,3-dihydro-1H-pyrrolo[3,4-c]pyridin-7-yl)-5-(trifluoromethyl)benzamide] | 100 to 500
O=C1NC(c2cc(F)ccc2Cl)c2c(OCc3cc(F)cc(C(F)(F)F)c3)cccc21 (centres unmarked) [Compound I-2295] | 10000 to 100000
Cc1ccccc1C1NC(=O)c2cc(-c3cnoc3)cc(NC(=O)c3csc4ccccc34)c21 (centres unmarked) [Compound I-141] | ≤ 100
O=C1N[C@H](c2cc(F)ccc2Cl)c2c(NC(=O)N3C[C@](O)(CO)c4ccccc43)cccc21 [Compound I-2168] | 10000 to 100000
N#Cc1cncn1Cc1cc(NC(=O)c2cc(F)cc(C(F)(F)F)c2)c2c(c1)C(=O)N[C@H]2c1cc(F)ccc1Cl (stereo in doubt) [Compound I-1748] | ≤ 100
CN1CCN(C(=O)Nc2cc(Br)cc3c2[C@H](c2cc(F)ccc2Cl)NC3=O)CC1(C)C (single isomer, unassigned) [Compound I-2240] | 10000 to 100000
O=C(CCc1ccccc1)Nc1cc(-c2ccc3ncnn3c2)cc2c1C(c1cc(F)ccc1Cl)NC2=O (centres unmarked) [Compound I-1628] | 1000 to 10000
O=C1N[C@@H](c2cc(F)ccc2Cl)c2c(NC(=O)N3C[C@](O)(C(F)(F)F)c4cc(F)ccc43)cc(-n3ccccc3=O)cc21 (single isomer, unassigned) [Compound I-2529] | 1000 to 10000
N#CC1(n2cc(-c3cc(NC(=O)c4cc(F)cc(C(F)(F)F)c4)c4c(c3)C(=O)N[C@@H]4c3cc(F)ccc3Cl)cn2)CC1 [Compound I-1885] | 500 to 1000
Cc1ccccc1C1NC(=O)c2nccc(NC(=O)N3CCc4ccc(F)cc43)c21 (centres unmarked) [Compound I-177] | 500 to 1000
N#CCc1ccc(NC(=O)N2C[C@@](O)(C(F)(F)F)c3cc(F)ccc32)c2c1C(=O)N[C@@H]2c1cc(F)ccc1Cl (single isomer, unassigned) [Compound I-2617] | 1000 to 10000
O=C(Nc1cc(Br)cc2c1C(c1cc(F)ccc1Cl)NC2=O)c1cc(F)cc(COC(F)(F)F)c1 (centres unmarked) [Compound I-1241] | 1000 to 10000
CC[C@@H](CC(=O)Nc1cccc2c1[C@@H](c1cc(F)ccc1Cl)NC2=O)[C@H](C)C(F)(F)F (single isomer, unassigned) [Compound I-2337] | 10000 to 100000
O=C1NC(c2cc(F)ccc2Cl)c2c(NC(=O)C3CCCN(CC(F)(F)F)C3)cc(-c3ccc4ncnn4c3)cc21 (single isomer, unassigned) [Compound I-1964] | 10000 to 100000
CS(=O)(=O)Oc1cc(NC(=O)c2cc(F)cc(C(F)(F)F)c2)c2c(c1)C(=O)NC2c1cc(F)ccc1Cl (centres unmarked) [Compound I-1543] | ≤ 100
O=C(Nc1cc(Br)cc2c1[C@@H](c1cc(F)ccc1C(F)F)NC2=O)c1cc(F)cc(C(F)(F)F)c1 [Compound I-798] | 1000 to 10000

Structure (SMILES) | IC50 [nM]
Cc1c(-c2cc(NC(=O)c3cc(F)cc(Cl)c3)c3c(n2)C(=O)NC3c2cc(F)ccc2Cl)cnn1C (centres unmarked) [Compound I-381] | 100 to 500
O=C(Nc1cc(Br)cc2c1C(c1cc(F)ccc1Cl)NC2=O)c1cc(F)cc(Cl)c1O (centres unmarked) [Compound I-845] | 500 to 1000
O=C1N[C@H](c2cc(F)ccc2Cl)c2c(NC(=O)N3C[C@](O)(C(F)(F)F)c4cc(F)ccc43)ccnc21 (single isomer, unassigned) [Compound I-2699] | 1000 to 10000
CC(C)[C@]1(O)CN(C(=O)Nc2cccc3c2[C@H](c2cc(F)ccc2Cl)NC3=O)c2ccc(F)cc21 (single isomer, unassigned) [Compound I-2453] | 1000 to 10000
O=C(Nc1cc(Br)cc2c1C(c1cc(F)ccc1Cl)NC2=O)c1cc(F)cc(OC(F)F)c1 (centres unmarked) [Compound I-833] | 100 to 500
O=C1NC(c2cc(F)ccc2Cl)c2c(NC(=O)N3CC(C(F)(F)F)CC(C(F)(F)F)C3)cc(Br)cc21 (racemic) [Compound I-661] | 1000 to 10000
O=C1N[C@H](c2cc(F)ccc2Cl)c2c(NC(=O)N3C[C@H](O)c4cc(F)ccc43)cc(-n3cccn3)cc21 (single isomer, unassigned) [Compound I-2367] | 1000 to 10000
O=C1N[C@H](c2cc(F)ccc2Cl)c2c(NC(=O)N3C[C@H](O)c4cc(F)ccc43)cc(-c3cnn(C(F)F)c3)cc21 (single isomer, unassigned) [Compound I-2475] | 1000 to 10000
COc1ccc([C@H](C)N2C(=O)c3cc(Br)cc(N)c3[C@@H]2c2cc(F)ccc2Cl)cc1 (racemic) [Compound I-863] | 1000 to 10000
CC(C)(O)CNc1cc(NC(=O)c2cc(F)cc(C(F)(F)F)c2)c2c(c1)C(=O)NC2c1cc(F)ccc1Cl (centres unmarked) [Compound I-730] | ≤ 100
CCc1cc(F)cc(C(=O)Nc2cc(Br)cc3c2C(c2ccccc2C)NC3=O)c1 (centres unmarked) [Compound I-608] | 500 to 1000
N#CC1(COc2cc(NC(=O)N3C[C@H](O)c4cc(F)ccc43)c3c(c2)C(=O)N[C@@H]3c2cc(F)ccc2Cl)CC1 (single isomer, unassigned) [Compound I-2554] | 100 to 500
O=C1NC(c2cc(F)ccc2Cl)c2c(NC3CCCS(=O)(=O)C3)cc(-c3ccc4ncnn4c3)cc21 (centres unmarked) [Compound I-2078] | 10000 to 100000
C[C@H](CCC(F)(F)F)C(=O)Nc1cccc2c1[C@@H](c1cc(F)ccc1Cl)NC2=O [Compound I-2140] | 10000 to 100000
O=C(Nc1cc(Br)cc2c1C(c1cc(F)ccc1Cl)NC2=O)c1cc(O)cc(F)c1 (centres unmarked) [Compound I-1283] | 1000 to 10000
O=C1NC(c2cc(F)ccc2Cl)c2c(Nc3nc4ccccc4s3)cc(-c3ccc4ncnn4c3)cc21 (centres unmarked) [Compound I-1659] | 100 to 500
O=C(Nc1cc(O[C@H]2CC[C@@H]2O)cc2c1C(c1cc(F)ccc1Cl)NC2=O)c1cc(F)cc(C(F)(F)F)c1 (mixture of isomers) [Compound I-1289] | 100 to 500
C[C@@H](c1nn[nH]c1C(=O)Nc1cccc2c1[C@H](c1cc(F)ccc1Cl)NC2=O)C(F)(F)F (single isomer, unassigned) [Compound I-2271] | 1000 to 10000
Cn1cc(NS(=O)(=O)Cc2cc(NC(=O)c3cc(F)cc(C(F)(F)F)c3)c3c(c2)C(=O)NC3c2cc(F)ccc2Cl)cn1 (centres unmarked) [Compound I-1535] | ≤ 100
CC#Cc1cc(-c2ccc3ncnn3c2)cc2c1C(c1cc(F)ccc1Cl)NC2=O (centres unmarked) [Compound I-1988] | 10000 to 100000
